Measured values published in publication doi:10.1101/2025.10.17.681057v1 (biorxiv, 2025).

Experiments:
human CYP2J2 = target: T1, human CYP2J2 (Homo sapiens, UniProt P51589); test: P450 spectral binding titration
T1 sequence (P51589 1-502): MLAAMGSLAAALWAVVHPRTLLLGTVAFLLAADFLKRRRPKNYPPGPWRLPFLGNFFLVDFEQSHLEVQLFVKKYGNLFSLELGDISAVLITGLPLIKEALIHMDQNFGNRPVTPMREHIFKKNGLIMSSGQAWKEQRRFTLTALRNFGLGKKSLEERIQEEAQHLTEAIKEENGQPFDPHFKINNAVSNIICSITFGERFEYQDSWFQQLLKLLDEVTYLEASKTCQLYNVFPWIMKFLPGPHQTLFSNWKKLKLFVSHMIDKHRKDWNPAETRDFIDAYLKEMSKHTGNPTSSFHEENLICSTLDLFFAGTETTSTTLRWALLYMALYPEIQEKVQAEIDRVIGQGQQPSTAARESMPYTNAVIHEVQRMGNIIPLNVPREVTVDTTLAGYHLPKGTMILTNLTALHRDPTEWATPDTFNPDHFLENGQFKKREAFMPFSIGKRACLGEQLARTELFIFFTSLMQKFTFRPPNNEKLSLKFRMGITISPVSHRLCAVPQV

[1] = target: T2, Fatty Acid Amide Hydrolase (FAAH) (Homo sapiens, UniProt O00519); test: fluorescence assay of AMC release from anandamide-AMC, 4-parameter logistic fit; assay type: biochemical
T2 sequence (O00519 1-579): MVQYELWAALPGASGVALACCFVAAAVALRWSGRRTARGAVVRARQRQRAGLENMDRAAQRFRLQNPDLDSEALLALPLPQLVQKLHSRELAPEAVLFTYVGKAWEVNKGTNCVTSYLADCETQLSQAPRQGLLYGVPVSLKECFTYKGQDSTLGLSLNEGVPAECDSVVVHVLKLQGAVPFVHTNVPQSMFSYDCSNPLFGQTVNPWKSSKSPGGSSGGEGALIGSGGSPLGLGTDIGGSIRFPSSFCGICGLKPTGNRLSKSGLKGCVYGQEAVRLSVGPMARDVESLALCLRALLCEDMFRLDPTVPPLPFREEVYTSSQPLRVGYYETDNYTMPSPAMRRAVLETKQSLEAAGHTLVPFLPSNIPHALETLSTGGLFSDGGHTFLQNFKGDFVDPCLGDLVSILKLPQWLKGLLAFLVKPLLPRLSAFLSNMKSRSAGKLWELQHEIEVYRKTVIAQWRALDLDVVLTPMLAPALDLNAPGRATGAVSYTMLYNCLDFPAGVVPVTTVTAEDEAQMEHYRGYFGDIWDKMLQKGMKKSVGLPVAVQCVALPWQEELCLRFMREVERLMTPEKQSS

CYP3A4 = CYP3A4 (Homo sapiens, UniProt P08684); test: P450 spectral binding titration
Sequence of CYP3A4 (P08684 2-503): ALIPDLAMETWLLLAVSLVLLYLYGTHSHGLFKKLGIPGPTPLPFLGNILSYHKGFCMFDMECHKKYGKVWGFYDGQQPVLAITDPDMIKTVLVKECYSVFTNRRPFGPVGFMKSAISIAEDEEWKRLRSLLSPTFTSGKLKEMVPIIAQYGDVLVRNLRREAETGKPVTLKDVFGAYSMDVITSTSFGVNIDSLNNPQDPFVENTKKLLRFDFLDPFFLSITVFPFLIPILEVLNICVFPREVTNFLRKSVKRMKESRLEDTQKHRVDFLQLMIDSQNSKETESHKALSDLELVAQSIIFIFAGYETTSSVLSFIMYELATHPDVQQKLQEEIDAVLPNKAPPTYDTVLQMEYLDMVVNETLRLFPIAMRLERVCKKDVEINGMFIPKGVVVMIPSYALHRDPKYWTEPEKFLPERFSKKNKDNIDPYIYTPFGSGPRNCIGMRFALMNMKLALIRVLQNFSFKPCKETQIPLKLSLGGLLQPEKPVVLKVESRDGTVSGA

SMILES | Kd (human CYP2J2) [µM] | IC50 [1] [µM] | Kd (CYP3A4) [µM]
CCCCC/C=C\C/C=C\C/C=C\C/C=C\CCCC(=O)NCC(=O)O [NA-Gly] | 3.3 ± 0.31 | 14.2 ± 1.07 | –
CC/C=C\C/C=C\C/C=C\C/C=C\C/C=C\C/C=C\CCC(=O)NCC(=O)O [DHA-Gly] | 2.47 ± 0.26 | 35.3 ± 1.82 | 20.3 ± 6.13
